A short description of data set [1]: Plasma concentration in Sprague-Dawley rat after 7 hrs at 100 mg/kg, po. The data set is classed as ADME, organism-based. Details: dose 100 mg/kg, route oral.
Data set [2] is described as follows: Stability in rat liver microsomes after 20 mins. The class given is ADME, Microsome. The settings on record: read-out: Stability.
The target in data set [3] is T1, Glucocorticoid receptor (Homo sapiens, UniProt P04150).
T1 sequence (P04150 whole entry): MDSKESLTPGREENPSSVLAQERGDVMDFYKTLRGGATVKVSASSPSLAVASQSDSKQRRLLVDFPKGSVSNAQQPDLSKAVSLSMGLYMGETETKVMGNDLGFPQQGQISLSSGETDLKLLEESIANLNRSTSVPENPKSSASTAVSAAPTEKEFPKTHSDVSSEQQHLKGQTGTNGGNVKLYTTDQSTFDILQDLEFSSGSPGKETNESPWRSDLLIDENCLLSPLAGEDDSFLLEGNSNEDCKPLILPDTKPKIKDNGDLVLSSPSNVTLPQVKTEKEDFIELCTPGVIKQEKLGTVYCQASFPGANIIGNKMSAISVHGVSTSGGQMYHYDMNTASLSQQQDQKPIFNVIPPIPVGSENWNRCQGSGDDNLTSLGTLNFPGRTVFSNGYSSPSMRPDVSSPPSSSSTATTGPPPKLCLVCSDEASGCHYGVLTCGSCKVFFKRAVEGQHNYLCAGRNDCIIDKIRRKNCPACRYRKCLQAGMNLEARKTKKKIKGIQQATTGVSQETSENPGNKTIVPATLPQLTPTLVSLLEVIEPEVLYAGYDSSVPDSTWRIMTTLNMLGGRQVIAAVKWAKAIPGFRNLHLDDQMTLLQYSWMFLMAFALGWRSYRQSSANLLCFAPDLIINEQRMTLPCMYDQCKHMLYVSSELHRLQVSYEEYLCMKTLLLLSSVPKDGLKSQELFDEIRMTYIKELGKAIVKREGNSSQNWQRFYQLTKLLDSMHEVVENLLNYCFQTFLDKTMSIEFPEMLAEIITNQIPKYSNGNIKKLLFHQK
The data set can be described thus: Binding affinity to human GR.

In data set [4] the test system is Rattus norvegicus. The data set can be described thus: Inhibition of prednisilone-induced lymphopenia in Sprague-Dawley rat at 100 mg/kg, po. The data set is classed as functional.
Data set [5] relates to Rattus norvegicus. Description: Inhibition of prednisilone-stimulated TAT production in Sprague-Dawley rat at 100 mg/kg, po. The data set is classed as functional.
Data set [6] has as its target T1, Glucocorticoid receptor. Description: Activity at GR expressed in CHO cells assessed as decrease in dexamethasone-stimulated alkaline phosphatase production by GRAF assay. The data set is classed as cell-based.
In data set [7] the test system is Rattus norvegicus. Description: Liver concentration in Sprague-Dawley rat after 7 hrs at 100 mg/kg, po. The class given is ADME, organism-based. Details: dose 100 mg/kg, route oral. The settings on record: in vivo.
Data set [8] can be described thus: Protein binding in rat plasma. The class given is ADME, cell-free. The settings on record: read-out: PPB (converted).
Data set [9] concerns Rattus norvegicus. Description: Inhibition of prednisilone-induced glycogen deposition in Sprague-Dawley rat at 100 mg/kg, po. The class given is functional.

By IC50 is commonly meant the point on the concentration scale where inhibition reaches its midpoint. The inhibition in vivo is the relative decrease from the control value, in per cent. In data set [1], `CC#C[C@]1(O)CC[C@H]2[C@@H]3CCC4=CC(=O)CCC4=C3[C@@H](c3ccc(OC)c(C)c3)C[C@@]21C` showed a concentration at 7 h of 4.8 µM. Besides, in data set [2], the remaining at 20 min stood at 87%. Besides, the concentration for half-maximal inhibition (IC50) at Glucocorticoid receptor [3] worked out at 0.1 nM; on Glucocorticoid receptor [6], 1.1 nM. For the same molecule, the inhibition in vivo at 100 mg/kg in the data set on Rattus norvegicus [4] was determined as 67%; in the data set on Rattus norvegicus [5] it was 97%. Further, the Drug uptake in the data set with Rattus norvegicus [7] is given as 18.1%.

`CC#C[C@]1(O)CC[C@H]2[C@@H]3CCC4=CC(=O)CCC4=C3[C@@H](c3ccc(OC)cc3C)C[C@@]21C`: the half-maximal inhibitory concentration (IC50) on Glucocorticoid receptor [3] is 9 nM; at Glucocorticoid receptor [6], 32 nM.

`CC#C[C@]1(O)CC[C@H]2[C@@H]3CCC4=CC(=O)CCC4=C3[C@@H](c3c(F)cc(OC)cc3OC)C[C@@]21C`: the IC50 at Glucocorticoid receptor [3] worked out at 6.1 nM; at Glucocorticoid receptor [6], 43 nM.

In data set [1], `CC#C[C@]1(O)CC[C@H]2[C@@H]3CCC4=CC(=O)CCC4=C3[C@@H](c3ccc(N(C)CCO[C@H]4CC[C@@]5(C)[C@@H](C4)C[C@@H](O)[C@@H]4[C@@H]5C[C@H](O)[C@]5(C)[C@@H]([C@H](C)CCC(=O)O)CC[C@@H]45)cc3)C[C@@]21C` came in with a concentration at 7 h of 4.5 µM. Besides, the remaining at 20 min in data set [2] was found to be 98%. For the same molecule, the IC50 at Glucocorticoid receptor [3] was determined as 1.2 nM; at Glucocorticoid receptor [6] it was 10 nM. The fraction unbound in data set [8] is 0.041. Also, the figures for the inhibition in vivo at 100 mg/kg in the data set on Rattus norvegicus [9], with Rattus norvegicus [4] and in the data set with Rattus norvegicus [5] were 86%, 9% and 72%, respectively. The Drug uptake in the data set with Rattus norvegicus [7] is 26.5%.

On to `CC#C[C@]1(O)CC[C@H]2[C@@H]3CCC4=CC(=O)CCC4=C3[C@@H](c3ccc(N(C)C)cc3)C[C@@]21C` [MIFEPRISTONE], for which the concentration at 7 h in data set [1] was found to be 3.9 µM. In addition, in data set [2], the remaining at 20 min was 70%. Moreover, in data set [8], the fraction unbound is 0.044. Besides, the inhibition in vivo at 100 mg/kg worked out at 77% in the data set on Rattus norvegicus [9], 104% in the data set on Rattus norvegicus [4] and 101% in the data set with Rattus norvegicus [5]. For the same molecule, in the data set on Rattus norvegicus [7], the Drug uptake worked out at 26.5%.

`CC#C[C@]1(O)CC[C@H]2[C@@H]3CCC4=CC(=O)CCC4=C3[C@@H](c3c(OC)cc(OC)cc3OC)C[C@@]21C`: on Glucocorticoid receptor [3], the IC50 amounted to 481 nM.

`C=CCOc1c(C)cc([C@H]2C[C@@]3(C)[C@@H](CC[C@@]3(O)C#CC)[C@@H]3CCC4=CC(=O)CCC4=C32)cc1Cl`: the 50% inhibitory concentration (IC50) came to 1.5 nM on Glucocorticoid receptor [3] and 20.9 nM at Glucocorticoid receptor [6].

`CC#C[C@]1(O)CC[C@H]2[C@@H]3CCC4=CC(=O)CCC4=C3[C@@H](c3cc(C)c(OCCO[C@H]4CC[C@@]5(C)[C@@H](C4)C[C@@H](O)[C@@H]4[C@@H]5C[C@H](O)[C@]5(C)[C@@H]([C@H](C)CCC(=O)O)CC[C@@H]45)c(C)c3)C[C@@]21C`: the half-maximal inhibitory concentration (IC50) at Glucocorticoid receptor [3] was determined as 4.9 nM; at Glucocorticoid receptor [6] it was 200 nM. For the same molecule, the inhibition in vivo at 100 mg/kg is 12% in the data set on Rattus norvegicus [9], 0% in the data set with Rattus norvegicus [4] and 0% with Rattus norvegicus [5].

In the case of `CC#C[C@]1(O)CC[C@H]2[C@@H]3CCC4=CC(=O)CCC4=C3[C@@H](c3ccc(-c4ccc(OC)cc4)cc3)C[C@@]21C`, the remaining at 20 min in data set [2] is 96%. The figures for the half-maximal inhibitory concentration (IC50) at Glucocorticoid receptor [3] and at Glucocorticoid receptor [6] were 0.7 nM and 4.2 nM, respectively.

Regarding `C=CCOc1ccc([C@H]2C[C@@]3(C)[C@@H](CC[C@@]3(O)C#CC)[C@@H]3CCC4=CC(=O)CCC4=C32)cc1Cl`, the 50% inhibitory concentration (IC50) stood at 0.4 nM on Glucocorticoid receptor [3] and 4.7 nM at Glucocorticoid receptor [6].

For `CC#C[C@]1(O)CC[C@H]2[C@@H]3CCC4=CC(=O)CCC4=C3[C@@H](c3ccc(OCCO[C@H]4CC[C@@]5(C)[C@@H](C4)C[C@@H](O)[C@@H]4[C@@H]5C[C@H](O)[C@]5(C)[C@@H]([C@H](C)CCC(=O)O)CC[C@@H]45)c(C)c3)C[C@@]21C`, in data set [1], the concentration at 7 h was found to be 4.5 µM. Further, the remaining at 20 min in data set [2] was found to be 95%. The IC50 at Glucocorticoid receptor [3] amounted to 3.1 nM; on Glucocorticoid receptor [6], 30.7 nM. In addition, the fraction unbound in data set [8] was 0.017. Also, the figures for the inhibition in vivo at 100 mg/kg with Rattus norvegicus [9], in the data set with Rattus norvegicus [4] and in the data set on Rattus norvegicus [5] were 0%, 20% and 31%, respectively. The Drug uptake with Rattus norvegicus [7] worked out at 22.2%.

In the case of `CC#C[C@]1(O)CC[C@H]2[C@@H]3CCC4=CC(=O)CCC4=C3[C@@H](c3ccc(SC)cc3)C[C@@]21C`, the IC50 came to 0.6 nM at Glucocorticoid receptor [3] and 1.8 nM on Glucocorticoid receptor [6].

Regarding `CC#C[C@]1(O)CC[C@H]2[C@@H]3CCC4=CC(=O)CCC4=C3[C@@H](c3cc(F)c(OC)cc3F)C[C@@]21C`, the half-inhibitory concentration (IC50) turned out to be 3.2 nM on Glucocorticoid receptor [3] and 15 nM on Glucocorticoid receptor [6].

On to `CC#C[C@]1(O)CC[C@H]2[C@@H]3CCC4=CC(=O)CCC4=C3[C@@H](c3ccc(Oc4ccccc4)cc3)C[C@@]21C`, for which the concentration for half-maximal inhibition (IC50) on Glucocorticoid receptor [3] was found to be 1.5 nM; on Glucocorticoid receptor [6], 18.8 nM.

On Glucocorticoid receptor [3], `CC#C[C@]1(O)CC[C@H]2[C@@H]3CCC4=CC(=O)CCC4=C3[C@@H](c3cc(OC)c(OC)c(OC)c3)C[C@@]21C` had an IC50 of 60.7 nM.

Consider `CC#C[C@]1(O)CC[C@H]2[C@@H]3CCC4=CC(=O)CCC4=C3[C@@H](c3c(F)cc(OC)cc3F)C[C@@]21C`, for which the concentration for half-maximal inhibition (IC50) on Glucocorticoid receptor [3] stood at 0.7 nM; at Glucocorticoid receptor [6], 10.1 nM.

As to `CC#C[C@]1(O)CC[C@H]2[C@@H]3CCC4=CC(=O)CCC4=C3[C@@H](c3ccc(-c4ccc(OCCO[C@H]5CC[C@@]6(C)[C@@H](C5)C[C@@H](O)[C@@H]5[C@@H]6C[C@H](O)[C@]6(C)[C@@H]([C@H](C)CCC(=O)O)CC[C@@H]56)cc4)cc3)C[C@@]21C`, the remaining at 20 min in data set [2] was 100%. Also, the half-inhibitory concentration (IC50) worked out at 2.5 nM at Glucocorticoid receptor [3] and 23.5 nM at Glucocorticoid receptor [6]. For the same molecule, the inhibition in vivo at 100 mg/kg in the data set on Rattus norvegicus [9] was determined as 51%; with Rattus norvegicus [4] it was 40%; in the data set with Rattus norvegicus [5] it was 44%.

Turning to `CC#C[C@]1(O)CC[C@H]2[C@@H]3CCC4=CC(=O)CCC4=C3[C@@H](c3ccc(O)c(C)c3)C[C@@]21C`, the figures for the IC50 on Glucocorticoid receptor [3] and at Glucocorticoid receptor [6] were 4.5 nM and 28.6 nM, respectively.

`CC#C[C@]1(O)CC[C@H]2[C@@H]3CCC4=CC(=O)CCC4=C3[C@@H](c3cc(C)c(OC)c(C)c3)C[C@@]21C`: the concentration for half-maximal inhibition (IC50) at Glucocorticoid receptor [3] stood at 0.4 nM; at Glucocorticoid receptor [6], 2.8 nM.

In the case of `CC#C[C@]1(O)CC[C@H]2[C@@H]3CCC4=CC(=O)CCC4=C3[C@@H](c3ccc(OC)cc3)C[C@@]21C`, the concentration for half-maximal inhibition (IC50) at Glucocorticoid receptor [3] stood at 0.9 nM; at Glucocorticoid receptor [6], 7.6 nM.

The record behind these values is ChEMBL document CHEMBL1145292, “Synthesis and activity of novel bile-acid conjugated glucocorticoid receptor antagonists” (Bioorg Med Chem Lett, 2006).
